In data set [1] the test system is Staphylococcus aureus. The data set is described as follows: Antimicrobial activity against methicillin-resistant Staphylococcus aureus up to 100 uM after 18 hrs by serial dilution method. Type of data set: functional, organism-based.
The subject of data set [2] is Staphylococcus aureus. The data set is described as follows: Antimicrobial activity against methicillin-resistant Staphylococcus aureus DSM 11822 up to 100 uM after 18 hrs by serial dilution method. Type of data set: functional, organism-based.
For data set [3], the system named is Staphylococcus aureus. The data set is described as follows: Antimicrobial activity against methicillin-resistant Staphylococcus aureus ICB 25701 up to 100 uM after 18 hrs by serial dilution method. Type of data set: functional, organism-based.
Data set [4] has as its system Staphylococcus aureus. The data set is described as follows: Antimicrobial activity against methicillin-resistant Staphylococcus aureus isolate RKI 11-02670 up to 100 uM after 18 hrs by serial dilution method. In kind it is functional, organism-based.
The next data set has as its system Enterococcus faecium. Description: Antimicrobial activity against Enterococcus faecium DSM 20477 up to 100 uM after 18 hrs by serial dilution method. In kind it is functional, organism-based.
For the next data set, the system named is Escherichia coli. The data set is described as follows: Antimicrobial activity against Escherichia coli DSM 1116 up to 100 uM after 18 hrs by serial dilution method. In kind it is functional, organism-based.
In the next data set the test system is Pseudomonas aeruginosa. Description: Antimicrobial activity against Pseudomonas aeruginosa PA7 DSM 24068 up to 100 uM after 18 hrs by serial dilution method. In kind it is functional, organism-based.
The next data set concerns Acinetobacter baumannii. The data set is described as follows: Antimicrobial activity against Acinetobacter baumannii DSM 30007 up to 100 uM after 18 hrs by serial dilution method. In kind it is functional, organism-based.
The test system of another data set is Klebsiella pneumoniae. Description: Antimicrobial activity against Klebsiella pneumoniae DSM 11678 up to 100 uM after 18 hrs by serial dilution method. In kind it is functional, organism-based.
In another data set the test system is Candida albicans. The data set is described as follows: Antimicrobial activity against Candida albicans up to 100 uM after 18 hrs by serial dilution method. Type of data set: functional, organism-based.
The test system of data set [5] is Staphylococcus aureus. Description: Growth promoting activity against methicillin-resistant Staphylococcus aureus at 50 uM after 18 hrs by serial dilution method. In kind it is organism-based. Particulars: in vivo.
The next data set has as its system L929. The data set is described as follows: Antiproliferative activity against mouse L929 cells after 5 days by WST-1 assay. The settings on record: L929, 120 h. In kind it is ADME, cell-based.
The test system of the next data set is KB 3-1. The data set is described as follows: Antiproliferative activity against human KB-3-1 cells after 5 days by WST-1 assay. In kind it is functional, cell-based. The settings on record: KB 3-1, 120 h.
For the next data set, the system named is MCF7. The data set is described as follows: Antiproliferative activity against human MCF7 cells after 5 days by WST-1 assay. Type of data set: functional, cell-based. The settings on record: MCF7, 120 h. Background: Formazan colour is commonly taken as a measure of viable cells.
Data set [6] is described as follows: Antiproliferative activity against human FS4-LTM cells after 24 hrs by WST-1 assay. Type of data set: ADME, cell-based.
Data set [7] relates to Staphylococcus aureus. The data set is described as follows: Antimicrobial activity against methicillin-resistant Staphylococcus aureus isolate RKI 11-02670 after 18 hrs by serial dilution method. In kind it is functional, organism-based. The settings on record: isolate RKI 11-02670, 18 h.

In brackets after ≈: the same amount, converted by molar mass. Activity calls are given as the source filed them. The rule behind the calls is not given here.

In the case of `COc1cc(O)c2c(c1O)C/C(C)=C\CC[C@@]1(C)O[C@@H]1C2=O`, the outcome in the data set with Staphylococcus aureus [1], in the data set on Staphylococcus aureus [2], in the data set with Staphylococcus aureus [3], in the data set with Staphylococcus aureus [4], in the data set with Enterococcus faecium and with Escherichia coli was inactive. Further, the outcome in the data set on Pseudomonas aeruginosa, in the data set with Acinetobacter baumannii, in the data set with Klebsiella pneumoniae and in the data set on Candida albicans was inactive. In the data set on Staphylococcus aureus [5], this compound came in with an Activity above 25%. Besides, the IC50 (as a rule, the midpoint of a concentration-inhibition curve) in the data set with L929 is 9.7 µM; with KB 3-1, 10 µM; with MCF7 it was 15 µM; in [6], 28 µM.
As to `COc1cc(O)c2c(c1O)C/C(CBr)=C\CC[C@@]1(C)O[C@@H]1C2=O`, a half-maximal response with Staphylococcus aureus [7] (EC50) required 22 µM. In addition, the lowest concentration to inhibit growth in the data set on Staphylococcus aureus [7] (MIC) was 13 µg/mL (≈ 33.9 µM). For the same compound, the IC50 in the data set on L929 worked out at 10 µM; in the data set on KB 3-1 it was 34 µM; with MCF7 it was 32 µM; in [6], 29 µM.
In the case of `COc1cc(O)c2c(c1O)C[C@]1(C)O[C@@H]1CC[C@@]1(C)O[C@@H]1C2=O`, the outcome in the data set on Staphylococcus aureus [1], with Staphylococcus aureus [2], in the data set with Staphylococcus aureus [3], with Staphylococcus aureus [4], in the data set with Enterococcus faecium and in the data set on Escherichia coli was inactive. Also, the outcome with Pseudomonas aeruginosa, in the data set on Acinetobacter baumannii, with Klebsiella pneumoniae and in the data set with Candida albicans was inactive. The Activity in the data set with Staphylococcus aureus [5] is reported as above 25%. Also, the IC50 in the data set with L929 stood at 9.9 µM; in the data set with KB 3-1, 9 µM; in the data set on MCF7 it was 17 µM; in data set [6] it was 29 µM.
Regarding `COC1=CC(=O)C2=C(C[C@]3(C)O[C@@H]3CC[C@@]3(C)O[C@@H]3C2=O)C1=O`, the outcome in the data set with Staphylococcus aureus [1], in the data set with Staphylococcus aureus [2], with Staphylococcus aureus [3], in the data set on Staphylococcus aureus [4], in the data set with Enterococcus faecium and in the data set on Escherichia coli was inactive. For the same compound, the result in the data set with Pseudomonas aeruginosa, in the data set with Acinetobacter baumannii, in the data set on Klebsiella pneumoniae and with Candida albicans was inactive. Also, the IC50 in the data set on L929 is 18 µM; with KB 3-1 it was 20 µM; with MCF7, 24 µM; in data set [6] it was 31 µM.
In the case of `COc1cc(O)c2c(c1O)C[C@]1(C)O[C@@](C)(CC[C@H]1O)[C@H](O)C2=O`, the result in the data set on Staphylococcus aureus [1], in the data set with Staphylococcus aureus [2], with Staphylococcus aureus [3], with Staphylococcus aureus [4], with Enterococcus faecium and in the data set on Escherichia coli was inactive. Also, the result in the data set on Pseudomonas aeruginosa, in the data set with Acinetobacter baumannii, with Klebsiella pneumoniae and in the data set with Candida albicans was inactive. Moreover, the IC50 was above 100 µM with L929, 100 µM in the data set with KB 3-1, 100 µM in the data set on MCF7 and above 100 µM in [6].
In the case of `COC1=CC(=O)C2=C(C/C(C)=C\CC[C@@]3(C)O[C@@H]3C2=O)C1=O`, in the data set on Staphylococcus aureus [7], a half-maximal response (EC50) required 64 µM. Also, the IC50 came out at 13 µM in the data set on L929, 14 µM in the data set with KB 3-1, 27 µM with MCF7 and 28 µM in data set [6].
`C=C1Cc2c(O)c(OC)cc(O)c2C(=O)[C@H]2O[C@]2(C)CC[C@H]1Br`: the outcome in the data set with Staphylococcus aureus [1], in the data set with Staphylococcus aureus [2], in the data set on Staphylococcus aureus [3], in the data set with Staphylococcus aureus [4], in the data set with Enterococcus faecium and in the data set on Escherichia coli was inactive. Besides, the result with Pseudomonas aeruginosa, in the data set with Acinetobacter baumannii, with Klebsiella pneumoniae and with Candida albicans was inactive. For the same compound, the IC50 was determined as 2.5 µM in the data set with L929, 4.5 µM in the data set on KB 3-1, 11 µM in the data set with MCF7 and 14 µM in data set [6].
With `COc1cc(O)c2c(c1O)C/C(CO)=C\CC[C@@]1(C)O[C@@H]1C2=O`, the response in the data set on Staphylococcus aureus [7] was half-maximal at 50 µM (EC50). Moreover, the half-inhibitory concentration (IC50) came out at 40 µM in the data set with L929, 59 µM in the data set with KB 3-1, 43 µM in the data set with MCF7 and 42 µM in data set [6].
For the compound `COc1cc(O)c2c(c1O)[C@@H](O)/C(C)=C\CC[C@@]1(C)O[C@@H]1C2=O`, the result with Staphylococcus aureus [1], with Staphylococcus aureus [2], in the data set on Staphylococcus aureus [3], in the data set on Staphylococcus aureus [4], in the data set on Enterococcus faecium and in the data set on Escherichia coli was inactive. Moreover, the outcome in the data set on Pseudomonas aeruginosa, in the data set on Acinetobacter baumannii, with Klebsiella pneumoniae and in the data set on Candida albicans was inactive. For the same compound, the IC50 in the data set on L929 worked out at 4 µM; in the data set on KB 3-1, 4.1 µM; in the data set on MCF7, 6.2 µM; in [6], 29 µM.
As for `COc1cc(O)c2c(c1O)C/C(C(OC(C)=O)OC(C)=O)=C\CC[C@@]1(C)O[C@@H]1C2=O`, in the data set on Staphylococcus aureus [7], the response was half-maximal at 54 µM (EC50). The IC50 is 2.7 µM with L929, 5.6 µM with KB 3-1, 5.6 µM with MCF7 and 2.5 µM in data set [6].
